This note sets out measurements from ChEMBL document CHEMBL2029230, “Identification, design and biological evaluation of heterocyclic quinolones targeting Plasmodium falciparum type II NADH:quinone oxidoreductase (PfNDH2)” (J Med Chem, 2012).

For this test, the system named is Plasmodium falciparum. Description: Antimalarial activity against blood stage forms of Plasmodium falciparum 3D7 infected in human erythrocytes. It counts as functional, organism-based.

pIC50: −log10 of the molar value. Where only a bound is given, the exact number is not on record here.

For orientation: pIC50 means the IC50 on a negative log10 scale, so that one unit is a factor of ten. A lower pIC50 goes with a large IC50. With `Cc1c(-c2c(F)cc(-c3ccc(OC(F)(F)F)cc3)cc2F)[nH]c2ccccc2c1=O`, the pIC50 is 6.03.

Turning to `Cc1c(-c2ccc(-c3ccc(F)cc3F)cc2)[nH]c2ccccc2c1=O`, the negative-log IC50 (pIC50) is 6.67.

Consider `Cc1c(-c2ccc(-c3ccccc3F)cc2)[nH]c2ccccc2c1=O`, for which the pIC50 is 6.33. This pIC50 lies 0.34 log units lower than the previous one.

On to `CCOC(=O)c1c(-c2ccc(-c3ccc(OC(F)(F)F)cc3)cc2)[nH]c2ccccc2c1=O`, for which the negative logarithm of the IC50 (pIC50) is 6.46.

`COc1cccc2[nH]c(-c3ccc(-c4ccc(OC(F)(F)F)cc4)nc3)c(C)c(=O)c12` showed a negative logarithm of the IC50 (pIC50) of less than 6.00.

As for `COc1ccc2[nH]c(-c3ccc(-c4ccc(OC(F)(F)F)cc4)nc3)c(C)c(=O)c2c1`, the pIC50 was less than 6.00.

On to `Cc1c(-c2ccc(-c3ccc(OC(F)(F)F)cc3)nc2)[nH]c2ccc(OC(F)(F)F)cc2c1=O`, for which the pIC50 was less than 6.00.

In turn, `Cc1c(-c2ccc(-c3ccc(OC(F)(F)F)cc3)nc2)[nH]c2ccc(C(F)(F)F)cc2c1=O` showed a pIC50 of less than 6.00.

With `Cc1c(-c2ccc(-c3ccc(OC(F)(F)F)cc3)nc2)[nH]c2cc(Cl)ccc2c1=O`, the pIC50 was 6.43.

For the molecule `Cc1c(-c2ccc(-c3ccc(OC(F)(F)F)cc3)nc2)[nH]c2cc(C(F)(F)F)ccc2c1=O`, the pIC50 is less than 6.00.

`Cc1c(-c2ccc(-c3ccc(OC(F)(F)F)cc3)nc2)[nH]c2cc(S(C)(=O)=O)ccc2c1=O` gave a pIC50 of less than 6.00.

`COc1cccc2c(=O)c(C)c(-c3ccc(-c4ccc(OC(F)(F)F)cc4)nc3)[nH]c12` had a negative-log IC50 (pIC50) of less than 6.00.

Regarding `Cc1c(-c2ccc(-c3ccc(OC(F)(F)F)cc3)nc2)[nH]c2cc(F)c(F)cc2c1=O`, the negative-log IC50 (pIC50) was 6.46.

As to `Cc1c(-c2ccc(-c3ccc(OC(F)(F)F)cc3)nc2)[nH]c2cc(F)c(Cl)cc2c1=O`, the negative-log IC50 (pIC50) was 6.41. This pIC50 and that of the molecule before are within 0.2 log units of each other.

Consider `Cc1c(-c2ccc(-c3ccc(OC(F)(F)F)cc3)nc2)[nH]c2cc(Cl)c(F)cc2c1=O`, for which the negative-log IC50 (pIC50) was 6.41.

In turn, `COc1cccc(-c2ccc(-c3[nH]c4ccccc4c(=O)c3C)cn2)c1` showed a pIC50 of 6.25.

Molecule `Cc1c(-c2ccc(-c3ccc(OC(F)(F)F)cc3)nc2)[nH]c2ccc(O)cc2c1=O` gave a pIC50 of 6.55. This pIC50 is 0.30 log units higher than that of the molecule before.

Consider `Cc1c(-c2ccc(-c3ccc(OC(F)(F)F)cc3)nc2)[nH]c2cc(O)ccc2c1=O`, for which the pIC50 is 6.69.

For `Cc1c(-c2ccc(-c3ccc(OC(F)(F)F)cc3)nc2)[nH]c2c(O)cccc2c1=O`, the negative-log IC50 (pIC50) is less than 6.00.

The molecule `Cc1c(-c2ccc(-c3cccc(O)c3)nc2)[nH]c2ccccc2c1=O` gave a pIC50 of less than 6.00.

In turn, `Cc1c(-c2ccc(-c3ccc(O)cc3)nc2)[nH]c2ccccc2c1=O` gave a negative logarithm of the IC50 (pIC50) of less than 6.00.

Regarding `CCOC(=O)c1c(-c2ccc(-c3ccc(OC(F)(F)F)cc3)nc2)[nH]c2ccccc2c1=O`, the pIC50 was 6.01.

`COc1c(-c2ccc(-c3ccc(OC(F)(F)F)cc3)nc2)[nH]c2ccccc2c1=O` gave a negative-log IC50 (pIC50) of 7.03.

`Cc1c(-c2ccc(OC3CCC(F)(F)CC3)cc2)[nH]c2ccccc2c1=O` gave a pIC50 of 6.50.

Take `Cc1c(-c2ccc(OC3CCOCC3)cc2)[nH]c2ccccc2c1=O`: the pIC50 was less than 6.00.

In the case of `Cc1c(-c2ccc(CN3CCOCC3)cc2)[nH]c2cc(Cl)ccc2c1=O`, the pIC50 was less than 6.00.

Take `Cc1c(-c2ccc(OC3CCOCC3)cc2)[nH]c2ncccc2c1=O`: the pIC50 is less than 6.00.

On to `Cc1c(-c2ccc(-c3ccc(CN4CCOCC4)cc3)cc2)[nH]c2ccccc2c1=O`, for which the pIC50 was 6.30.

In turn, `Cc1c(-c2ccc(-c3ccc(CN4CCOCC4)cc3)nc2)[nH]c2ccccc2c1=O` gave a negative-log IC50 (pIC50) of less than 6.00.

`Cc1c(-c2ccc(OCCN3CCOCC3)cc2)[nH]c2ccccc2c1=O` showed a pIC50 of less than 6.00.

For `Cc1c(-c2ccc(OCCN3CCOCC3)cc2)[nH]c2ccc(Cl)cc2c1=O`, the pIC50 was less than 6.00.

Molecule `Cc1c(-c2ccc(OCCN3CCOCC3)cc2)[nH]c2cc(Cl)ccc2c1=O` gave a negative logarithm of the IC50 (pIC50) of less than 6.00.

`Cc1c(-c2ccc(OCCN3CCCCC3)cc2)[nH]c2ccccc2c1=O` showed a negative-log IC50 (pIC50) of less than 6.00.

The molecule `Cc1c(-c2ccc(OCCN3CCCC3)cc2)[nH]c2ccccc2c1=O` had a negative-log IC50 (pIC50) of less than 6.00.

Molecule `Cc1c(-c2ccc(OCCN3CCN(C)CC3)cc2)[nH]c2ccccc2c1=O` gave a pIC50 of less than 6.00.
